This note sets out measurements from EP1501797B1, “3-(SUBSTITUTED AMINO)-1H-INDOLE-2-CARBOXYLIC ACID ESTER AND 3-(SUBSTITUTED AMINO)-BENZO[B]THIOPHENE-2-CARBOXYLIC ACID ESTER DERIVATIVES AS INTERLEUKIN-4 GENE EXPRESSION INHIBITORS” (Aventis Pharmaceuticals Inc., priority 2002, dated 2003).

For one test, the system named is human IL-4 promoter. Briefly: IL-4 Luciferase assay in Jurkat cells (6.7-IL-4 Luc). Conditions: Jurkat cell line; concentration not given. Type of test: cell-based.
Another test deals with Anti-OVA IgE. Description: OVA induced allergen specific IgE in mice. In kind it is in vivo. Conditions: bled at day 15, vehicle 150.8. As to the method: Female mice (5-8 week age, Balb/c, Charles River) were used in this study. Ovalbumin (Sigma) was adsorbed to Aluminum Hydroxide Adsorptive Gel, Inter, and injected 10 µg/0.2ml/mouse intraperitoneally on experimental day 0 and day 7. […] They were bled at day 15. Serum ovalbumin specific IgE levels were determined by standard ELISA using a goat anti-mouse IgE antibody labeled with alkaline phosphatase. The anti-OVA titers were determined by making serial dilutions of the test sera and comparing with vehicle control.

Procedure for human IL-4 promoter: An IL-4 luciferase assay may be used to screen for compounds which modulate levels of IL-4 transcription.
Monoclonal lines, 1F7, F8 and C5 are derived from the stable transfected polyclonal population by the limiting dilution method and used for the assay. The monoclonal cell lines are cultured in the above described medium in the presence of 400 µg/ml G418.
The cells are harvested, resuspended in fresh media and plated at a density of 50,000 cells/well in 120 µL volume, in a 96 well plate and grown for 16 hours. Test compounds are added to the culture (in DMSO final concentration of 0.5 %) in replicates of 3 or 4 in a 15 µL volume. Typically, dose response curves are generated using three (10, 1 and 0.1 µM) or five concentrations (10, 1, 0.1, 0.01 and 0.001 µM). […] The stimulation process is terminated by the addition of 50 µL s of 1 x lysis buffer (25 mM Tris Phosphate, pH 7.8, 2.0 mM DTT, 2.0 mM EDTA, 100 ml/L glycerol, 1.0% Triton X-100 (v/v)). […]
All experimental plates included non-induced and induced control wells. […] The results generated from the assay are expressed as percent activity. […] The primary assay measured the effects of the ability of a compound to modulate the level of a reporter gene, luciferase, linked to a human IL-4 promoter transfected into a human Jurkat cell line.

Consider `O=C(O)c1[nH]c2ccccc2c1Nc1ccncc1` [Example 28, 3-(4-Pyridinylamino)-1H-indole-2-carboxylic acid], for which the “6.7-IL-4 Luc (% of control)” value with human IL-4 promoter is 62 ± 29 % of control. Moreover, the “Anti-OVA IgE” value in the test on Anti-OVA IgE (3 mg/kg intraperitoneally once a day from day 6 to day 14) came out at 41.8; in the test on Anti-OVA IgE (10 mg/kg intraperitoneally once a day from day 6 to day 14), 45.6.
